Reference: US20170369492A1 (Takeda Pharmaceutical Company Limited, priority 2014, published 2017)

Target: T1, human GPR43 (Homo sapiens, UniProt O15552)
T1 construct: expressed in transfected cells
T1 sequence (O15552 1-330): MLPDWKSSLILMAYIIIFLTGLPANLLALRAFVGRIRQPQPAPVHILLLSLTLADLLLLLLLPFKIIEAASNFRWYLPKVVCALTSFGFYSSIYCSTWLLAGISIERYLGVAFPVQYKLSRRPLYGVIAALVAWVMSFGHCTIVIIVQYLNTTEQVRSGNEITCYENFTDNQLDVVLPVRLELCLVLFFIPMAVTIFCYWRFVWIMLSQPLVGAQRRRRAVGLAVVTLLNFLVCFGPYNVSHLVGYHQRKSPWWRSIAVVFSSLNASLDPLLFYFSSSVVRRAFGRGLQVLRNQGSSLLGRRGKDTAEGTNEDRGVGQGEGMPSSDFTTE
Assay: Ca-Flux Functional Assay: Determination of Agonist/Positive Allosteric Modulator (PAM) Activity
Assay type: cell-based
Settings: CHO-K1 Gα16 cells stably expressing human GPR43; compound added in the presence of EC20 sodium acetate; intracellular Ca2+ by FLIPR; agonist/PAM activity not distinguished
Protocol: Ca-Flux Functional Assay: Determination of Agonist/Positive Allosteric Modulator (PAM) Activity
GPR43 agonist/PAM activity was determined by measuring changes in intracellular calcium levels using a Ca^2+ sensitive fluorescent dye. The changes in fluorescent signal were monitored by FLIPR (manufactured by Molecular Devices). GPR43 mediated increases in intracellular Ca^2+ concentration were readily detected upon activation with sodium acetate. Prior to the assay (24 hours), CHO-K1 Gα16 cells stably expressing human GPR43 were-seeded in cell culture medium in black, clear-bottom 384-well plates (Corning Inc) and grown overnight at 37° C., 5% CO2. On the day of the assay, cell culture media was removed and cells were loaded with Calcium 5 Dye (Molecular Devices) diluted in HBSS containing 25 mM HEPES, 2.5 mM Probenecid, 0.1% BSA for 1 hour at 37° C., 5% CO2. 10 point half log concentration response curves of sodium acetate from 10 mM were conducted prior to the testing of compounds to calculate the sodium acetate concentration that produces 20% of the maximal response (EC20). Test compounds (at to point half log concentration response curves from 10 μM) were added in the presence of sodium acetate to achieve a final concentration that produces approximately 20% maximal response as calculated from the previous experiment. The changes in fluorescent signal were monitored by FLIPR upon addition of the compound/EC20 sodium acetate mix. The EC50 values were determined from ten point concentration response curves. Curves were generated using the average of two wells for each data point.
The above assay detects both GPR43 receptor agonists and positive allosteric modulators of the GPR43 receptor, without distinguishing between the two. Activity in either regard is useful in the treatment of conditions associated with GPR43 receptor activity.

Row | EC50 [nM] | Structure (SMILES)
1 | 320 | Nc1c(S(=O)(=O)N2CCC(OCC3CC3)CC2)c2nccnc2n1C1CCCCC1 [Example 107, 5-cyclohexyl-7-[4-(cyclopropylmethoxy)piperidine-1-sulfonyl]-5H-pyrrolo[2,3-b]pyrazin-6-amine]
2 | 295 | COc1cccc(S(=O)(=O)c2c(N)n(C3CCCCC3)c3nccnc23)c1 [Example 112, 5-cyclohexyl-7-[(3-methoxybenzene)-sulfonyl]-5H-pyrrolo[2,3-b]pyrazin-6-amine]
3 | 6070 | Nc1c(S(=O)(=O)NCC2COC2)c2nccnc2n1C1CCCCC1 [Example 80, 6-amino-5-cyclohexyl-N-(oxetan-3-ylmethyl)-5H-pyrrolo[2,3-b]pyrazine-7-sulfonamide]
4 | 1550 | Nc1c(S(=O)(=O)N2CC(Oc3ccccc3)C2)c2nccnc2n1C1CCCCC1 [Example 99, 5-cyclohexyl-7-(3-phenoxyazetidine-1-sulfonyl)-5H-pyrrolo[2,3-b]pyrazin-6-amine]
5 | 1060 | Nc1c(S(=O)(=O)N2CCC(Oc3ccccc3)CC2)c2nccnc2n1C1CCCCC1 [Example 85, 5-cyclohexyl-7-(4-phenoxypiperidine-1-sulfonyl)-5H-pyrrolo[2,3-b]pyrazin-6-amine]
6 | 1250 | Nc1c(S(=O)(=O)N2CCC(Cc3ccccc3)CC2)c2nccnc2n1C1CCCCC1 [Example 81, 7-(4-benzylpiperidine-1-sulfonyl)-5-cyclohexyl-5H-pyrrolo[2,3-b]pyrazin-6-amine]
7 | 7030 | Nc1c(S(=O)(=O)N2CC(n3cccn3)C2)c2nccnc2n1C1CCCCC1 [Example 101, 5-cyclohexyl-7-[3-(1H-pyrazol-1-yl)azetidine-1-sulfonyl]-5H-pyrrolo[2,3-b]pyrazin-6-amine]
8 | 1080 | Nc1c(S(=O)(=O)c2ccc(OC(F)(F)F)cc2)c2nccnc2n1C1CCCCC1 [Example 116, 5-cyclohexyl-7-{[4-(trifluoromethoxy)-benzene]sulfonyl}-5H-pyrrolo[2,3-b]pyrazin-6-amine]
9 | 343 | Nc1c(S(=O)(=O)c2cccc(F)c2)c2nccnc2n1C1CCCCC1 [Example 110, 5-cyclohexyl-7-[(3-fluorobenzene)sulfonyl]-5H-pyrrolo[2,3-b]pyrazin-6-amine]
10 | 5700 | Nc1c(S(=O)(=O)N2CCC(O)CC2)c2nccnc2n1C1CCCCC1 [Example 93, 1-{6-amino-5-cyclohexyl-5H-pyrrolo[2,3-b]pyrazine-7-sulfonyl}piperidin-4-ol]
11 | 78 | COc1ccc(S(=O)(=O)c2c(N)n(C3CCCCC3)c3nccnc23)cc1 [Example 108, 5-cyclohexyl-7-[(4-methoxybenzene)-sulfonyl]-5H-pyrrolo[2,3-b]pyrazin-6-amine]
12 | 2810 | Nc1c(S(=O)(=O)N2CCN(C(=O)c3ccc(F)cc3)CC2)c2nccnc2n1C1CCCCC1 [Example 98, 5-cyclohexyl-7-{4-[(4-fluorophenyl)carbonyl]piperazine-1-sulfonyl}-5H-pyrrolo[2,3-b]pyrazin-6-amine]

Further lines, the compound ahead of its results:

Row | Structure (SMILES) | EC50 [nM]
13 | Cc1ccc(S(=O)(=O)c2c(N)n(C3CCCCC3)c3ncccc23)cc1 [Example 11, 1-cyclohexyl-3-[(4-methylbenzene)sulfonyl]-1H-pyrrolo[2,3-b]pyridin-2-amine] | 753
14 | COC1CN(S(=O)(=O)c2c(N)n(C3CCCCC3)c3nccnc23)C1 [Example 64, 5-cyclohexyl-7-((3-methoxyazetidin-1-yl)sulfonyl)-5H-pyrrolo[2,3-b]pyrazin-6-amine] | 7130
15 | Nc1c(S(=O)(=O)N2CCCCC2)c2nccnc2n1C1CCCCC1 [Example 57, 5-cyclohexyl-7-(piperidin-1-ylsulfonyl)-5H-pyrrolo[2,3-b]pyrazin-6-amine] | 259
16 | Nc1c(S(=O)(=O)N2CCSCC2)c2nccnc2n1C1CCCCC1 [Example 78, 5-cyclohexyl-7-(thiomorpholine-4-sulfonyl)-5H-pyrrolo[2,3-b]pyrazin-6-amine] | 337
17 | CC1(C)CCN(S(=O)(=O)c2c(N)n(C3CCCCC3)c3nccnc23)CC1 [Example 66, 5-cyclohexyl-7-((4,4-dimethylpiperidin-1-yl)sulfonyl)-5H-pyrrolo[2,3-b]pyrazin-6-amine] | 327
18 | Nc1c(S(=O)(=O)c2cccs2)c2nccnc2n1C1CCCCC1 [Example 8, 5-cyclohexyl-7-(thiophene-2-sulfonyl)-5H-pyrrolo[2,3-b]pyrazin-6-amine] | 118
19 | Nc1c(S(=O)(=O)c2ccc(F)cc2)c2nccnc2n1C1CCCCC1 [Example 6, 5-cyclohexyl-7-[(4-fluorobenzene)sulfonyl]-5H-pyrrolo[2,3-b]pyrazin-6-amine] | 301
20 | Nc1c(S(=O)(=O)Nc2ccccc2)c2nccnc2n1C1CCCCC1 [Example 41, 6-amino-5-cyclohexyl-N-phenyl-5H-pyrrolo[2,3-b]pyrazine-7-sulfonamide] | 585
21 | Cc1ccc(S(=O)(=O)c2c(N)n(C3CCCCC3)c3nccnc23)cc1 [Example 3] | 122
22 | CC(=O)N(C)C1CCN(S(=O)(=O)c2c(N)n(C3CCCCC3)c3nccnc23)CC1 [Example 79, N-(1-{6-amino-5-cyclohexyl-5H-pyrrolo[2,3-b]pyrazine-7-sulfonyl}piperidin-4-yl)-N-methylacetamide] | 5970
23 | Nc1c(S(=O)(=O)c2ccccc2)c2nccnc2n1C1CCCCC1 [Example 1, 7-(benzenesulfonyl)-5-cyclohexyl-5H-pyrrolo[2,3-b]pyrazin-6-amine] | 261
24 | Nc1c(S(=O)(=O)N2CCC(F)(F)CC2)c2nccnc2n1C1CCCCC1 [Example 69, 5-cyclohexyl-7-((4,4-difluoropiperidin-1-yl)sulfonyl)-5H-pyrrolo[2,3-b]pyrazin-6-amine] | 547
25 | COc1ccc(S(=O)(=O)c2c(N)n(C3CCC(F)(F)CC3)c3nccnc23)cc1 [Example 13, 5-(4,4-difluorocyclohexyl)-7-[(4-methoxybenzene)sulfonyl]-5H-pyrrolo[2,3-b]pyrazin-6-amine] | 129
26 | Nc1c(S(=O)(=O)c2ccccc2)c2ccnnc2n1C1CCCCC1 [Example 28, 5-(benzenesulfonyl)-7-cyclohexyl-7H-pyrrolo[2,3-c]pyridazin-6-amine] | 707
27 | Nc1c(S(=O)(=O)c2ccccc2)c2nccnc2n1C1CCC1 [Example 43, 5-cyclobutyl-7-(phenylsulfonyl)-5H-pyrrolo[2,3-b]pyrazin-6-amine] | 6990
28 | Nc1c(S(=O)(=O)c2ccccc2)c2nccnc2n1CCC1CC1 [Example 48, 5-(2-cyclopropylethyl)-7-(phenylsulfonyl)-5H-pyrrolo[2,3-b]pyrazin-6-amine] | 3260
29 | Cc1ccc(S(=O)(=O)c2c(N)n(C3CCCCCC3)c3nccnc23)cc1 [Example 2, 5-cycloheptyl-7-[(4-methylbenzene)sulfonyl]-5H-pyrrolo[2,3-b]pyrazin-6-amine] | 218
30 | CCC1(Cn2c(N)c(S(=O)(=O)c3ccccc3)c3nccnc32)CC1 [Example 55, 5-((1-ethylcyclopropyl)-methyl)-7-(phenylsulfonyl)-5H-pyrrolo[2,3-b]pyrazin-6-amine] | 7170
31 | CC1CCN(S(=O)(=O)c2c(N)n(C3CCCCC3)c3nccnc23)CC1 [Example 62, 5-cyclohexyl-7-((4-methylpiperidin-1-yl)sulfonyl)-5H-pyrrolo[2,3-b]pyrazin-6-amine] | 303
